Earlier results in patent publication US11857530B2, “Cannabinoid formulations” (Endocanna Health, Inc., priority 2017, dated 2024).

How the values were obtained:
CYP3A4 = CYP3A4 (Homo sapiens, UniProt P08684); details: after oromucosal dosing; for boost of THC and CBD levels by ketoconazole: co-administered CYP3A4 inhibitor ketoconazole; for boost of THC and CBD levels by the CYP3A4 inhibitor ketoconazole: clinical studies, co-administered ketoconazole
ABCB1 = ABCB1 (Homo sapiens, UniProt P08183)
Chain of ABCB1 (P08183 whole entry): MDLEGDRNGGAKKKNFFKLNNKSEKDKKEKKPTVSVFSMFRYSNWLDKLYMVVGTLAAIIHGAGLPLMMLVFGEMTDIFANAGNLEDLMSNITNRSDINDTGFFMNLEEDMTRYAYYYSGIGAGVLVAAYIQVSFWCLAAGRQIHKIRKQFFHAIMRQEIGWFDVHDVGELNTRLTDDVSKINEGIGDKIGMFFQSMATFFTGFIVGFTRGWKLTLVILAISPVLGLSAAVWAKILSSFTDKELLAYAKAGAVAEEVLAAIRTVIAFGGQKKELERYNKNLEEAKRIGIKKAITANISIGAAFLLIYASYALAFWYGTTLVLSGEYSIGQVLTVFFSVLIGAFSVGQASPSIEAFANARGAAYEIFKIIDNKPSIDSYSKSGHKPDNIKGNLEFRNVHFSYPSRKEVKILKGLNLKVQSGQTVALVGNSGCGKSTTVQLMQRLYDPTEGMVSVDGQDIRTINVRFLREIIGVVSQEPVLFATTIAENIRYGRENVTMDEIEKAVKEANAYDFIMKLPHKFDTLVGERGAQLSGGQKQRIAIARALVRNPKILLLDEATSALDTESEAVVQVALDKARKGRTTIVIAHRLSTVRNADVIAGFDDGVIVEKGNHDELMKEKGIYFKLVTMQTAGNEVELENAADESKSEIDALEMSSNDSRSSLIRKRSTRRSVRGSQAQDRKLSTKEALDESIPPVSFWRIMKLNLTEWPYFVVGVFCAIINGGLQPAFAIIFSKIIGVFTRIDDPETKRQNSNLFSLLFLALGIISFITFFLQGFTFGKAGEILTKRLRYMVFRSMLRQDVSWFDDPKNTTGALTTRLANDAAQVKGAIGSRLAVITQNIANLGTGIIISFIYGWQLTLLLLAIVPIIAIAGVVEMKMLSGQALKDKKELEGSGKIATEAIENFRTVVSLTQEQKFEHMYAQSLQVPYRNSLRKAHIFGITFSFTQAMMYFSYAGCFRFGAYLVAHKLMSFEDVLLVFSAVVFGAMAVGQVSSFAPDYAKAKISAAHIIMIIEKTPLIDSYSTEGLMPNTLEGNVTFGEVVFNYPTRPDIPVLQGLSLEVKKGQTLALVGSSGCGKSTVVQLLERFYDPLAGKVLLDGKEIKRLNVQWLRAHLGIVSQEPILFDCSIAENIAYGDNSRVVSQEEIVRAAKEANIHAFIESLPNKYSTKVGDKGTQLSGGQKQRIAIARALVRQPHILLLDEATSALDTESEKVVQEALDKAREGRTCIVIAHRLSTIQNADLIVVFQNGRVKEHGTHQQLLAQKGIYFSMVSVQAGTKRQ

Chain of CYP3A4 (P08684 whole entry): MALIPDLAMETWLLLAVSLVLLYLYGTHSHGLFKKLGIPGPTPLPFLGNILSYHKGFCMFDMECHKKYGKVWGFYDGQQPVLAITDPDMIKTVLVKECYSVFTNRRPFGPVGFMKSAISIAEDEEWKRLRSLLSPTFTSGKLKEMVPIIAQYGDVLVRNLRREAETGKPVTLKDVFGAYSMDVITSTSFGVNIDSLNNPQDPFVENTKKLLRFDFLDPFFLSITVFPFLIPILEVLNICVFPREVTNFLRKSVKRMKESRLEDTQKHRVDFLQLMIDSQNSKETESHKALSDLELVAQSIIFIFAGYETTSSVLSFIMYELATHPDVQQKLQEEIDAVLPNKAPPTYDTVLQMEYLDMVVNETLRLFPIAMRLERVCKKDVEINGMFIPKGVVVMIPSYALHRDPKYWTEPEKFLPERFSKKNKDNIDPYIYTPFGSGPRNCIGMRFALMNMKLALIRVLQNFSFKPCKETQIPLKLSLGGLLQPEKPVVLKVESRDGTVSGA

SMILES | boost of THC and CBD levels by ketoconazole (CYP3A4) | boost of THC and CBD levels by the CYP3A4 inhibitor ketoconazole (CYP3A4) | THC levels, fold lower, Homozygous MINOR Alleles (T/T) (ABCB1; ABCB1 SNIP 2-01-AFMLG, genotype T/T) | blood THC levels after consuming THC (ABCB1; users with homozygous alleles (T/T) at rs1045642 of ABCB1, relative to people with a different genotype)
C=C(C)[C@@H]1CCC(C)=C[C@H]1c1c(O)cc(CCCCC)cc1O [CBD, Cannabidiol] | approximately 2 fold | dosing by approximately 2-fold | – | –
CCCCCc1cc(O)c2c(c1)OC(C)(C)[C@@H]1CCC(C)=C[C@@H]21 [THC, Tetrahydrocannabinol] | approximately 2 fold | dosing by approximately 2-fold | may have 2-fold lower | two-fold lower
